Results from ChEMBL document CHEMBL4052758, “Design, synthesis, biological evaluation and molecular modelling studies of novel diaryl substituted pyrazolyl thiazolidinediones as potent pancreatic lipase inhibitors” (Bioorg Med Chem Lett, 2017).

Experiments:
[1] = target: T1, Pancreatic triacylglycerol lipase (Sus scrofa, UniProt P00591); test: Inhibition of porcine pancreatic lipase using p-nitrophenyl butyrate as substrate preincubated for 5 mins followed by substrate addition measured after 5 mins by spectrophotometric analysis
T1 sequence (P00591 whole entry): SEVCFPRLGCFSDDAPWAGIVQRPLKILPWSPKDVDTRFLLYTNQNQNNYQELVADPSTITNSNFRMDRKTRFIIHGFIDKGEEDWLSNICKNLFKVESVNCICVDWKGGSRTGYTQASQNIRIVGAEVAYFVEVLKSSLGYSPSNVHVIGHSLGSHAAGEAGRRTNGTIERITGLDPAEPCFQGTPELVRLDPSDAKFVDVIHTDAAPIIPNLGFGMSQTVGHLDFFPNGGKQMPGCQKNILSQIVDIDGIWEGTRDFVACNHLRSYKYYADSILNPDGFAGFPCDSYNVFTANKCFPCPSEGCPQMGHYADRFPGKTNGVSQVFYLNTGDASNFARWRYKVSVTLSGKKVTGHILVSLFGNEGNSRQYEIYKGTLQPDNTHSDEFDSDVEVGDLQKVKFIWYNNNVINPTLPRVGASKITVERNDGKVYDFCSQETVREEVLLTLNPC

[2] = organism: Sus scrofa; test: Inhibition of porcine pancreatic lipase type 2 assessed as residual enzyme activity using tributyrin as substrate preincubated for 30 mins followed by substrate addition measured for 5 mins
[3] = target: T1, Pancreatic triacylglycerol lipase; test: Binding affinity to porcine pancreatic lipase using p-nitrophenyl butyrate as substrate by dixon plot analysis
[4] = compound: O=C1S/C(=C\c2cn(-c3ccccc3)nc2-c2ccc(Cl)cc2)C(=O)N1Cc1ccc([N+](=O)[O-])cc1; test: Reversible competitive inhibition of porcine pancreatic lipase assessed as Km for substrate at 10 uM in presence of varying levels of p-nitophenyl butyrate by double reciprocal Lineweaver-burk plot analysis (reference value: 69.32 microM); conditions: Sus scrofa
[5] = compound: O=C1S/C(=C\c2cn(-c3ccccc3)nc2-c2ccc(Cl)cc2)C(=O)N1Cc1ccc([N+](=O)[O-])cc1; test: Reversible competitive inhibition of porcine pancreatic lipase assessed as Km for substrate at 5 uM in presence of varying levels of p-nitophenyl butyrate by double reciprocal Lineweaver-burk plot analysis (reference value: 69.32 microM); conditions: Sus scrofa
[6] = compound: O=C1S/C(=C\c2cn(-c3ccccc3)nc2-c2ccc(Cl)cc2)C(=O)N1Cc1ccc([N+](=O)[O-])cc1; test: Reversible competitive inhibition of porcine pancreatic lipase assessed as Vmax for substrate at 10 uM in presence of varying levels of p-nitophenyl butyrate by double reciprocal Lineweaver-burk plot analysis (reference value: 0.0545 microM/min); conditions: Sus scrofa
[7] = compound: O=C1S/C(=C\c2cn(-c3ccccc3)nc2-c2ccc(Cl)cc2)C(=O)N1Cc1ccc([N+](=O)[O-])cc1; test: Reversible competitive inhibition of porcine pancreatic lipase assessed as Vmax for substrate at 5 uM in presence of varying levels of p-nitophenyl butyrate by double reciprocal Lineweaver-burk plot analysis (reference value: 0.0545 microM/min); conditions: Sus scrofa
[8] = compound: O=C1S/C(=C\c2cn(-c3ccccc3)nc2-c2ccc(Cl)cc2)C(=O)N1Cc1ccc([N+](=O)[O-])cc1; test: Reversible competitive inhibition of porcine pancreatic lipase assessed as Km for substrate at 2.5 uM in presence of varying levels of p-nitophenyl butyrate by double reciprocal Lineweaver-burk plot analysis (reference value: 69.32 microM); conditions: Sus scrofa
[9] = compound: O=C1S/C(=C\c2cn(-c3ccccc3)nc2-c2ccc(Cl)cc2)C(=O)N1Cc1ccc([N+](=O)[O-])cc1; test: Reversible competitive inhibition of porcine pancreatic lipase assessed as Vmax for substrate at 2.5 uM in presence of varying levels of p-nitophenyl butyrate by double reciprocal Lineweaver-burk plot analysis (reference value: 0.0545 microM/min); conditions: Sus scrofa

Which IC50 [1] does the source give for O=C1NC(=O)/C(=C/c2cn(-c3ccccc3)nc2-c2ccccc2)S1 here?
Its IC50 is 18.8 µM.

What about the XI50 [2] of the same molecule?
Its XI50 is 65.1.

Which IC50 [1] does the source give for O=C1NC(=O)/C(=C/c2cn(-c3ccccc3)nc2-c2ccc(Cl)cc2)S1 here?
Its IC50 is 10.3 µM.

And the XI50 [2]?
Its XI50 is 19.3.

Which results are given for O=C1S/C(=C\c2cn(-c3ccccc3)nc2-c2ccc(F)cc2)C(=O)N1Cc1ccc([N+](=O)[O-])cc1?
IC50 [1]: 5.42 µM; XI50 [2]: 13

O=C1NC(=O)/C(=C/c2cn(-c3ccccc3)nc2-c2ccc([N+](=O)[O-])cc2)S1 was tested. Which IC50 [1] did it give?
Its IC50 is 17.3 µM.

What about the XI50 [2] of the same molecule?
Its XI50 is 39.5.

How did the IC50 [1] turn out when Cc1ccc(-c2nn(-c3ccccc3)cc2/C=C2\SC(=O)NC2=O)cc1 was run?
The IC50 was 15.1 µM.

And the XI50 [2]?
The XI50 was 27.2.

For Cc1ccc(-c2nn(-c3ccccc3)cc2/C=C2\SC(=O)N(Cc3ccc([N+](=O)[O-])cc3)C2=O)cc1, which IC50 [1] is on record?
The IC50 was 9.87 µM.

And the XI50 [2]?
Its XI50 is 19.3.

Which results are given for O=C1S/C(=C\c2cn(-c3ccccc3)nc2-c2ccccc2)C(=O)N1Cc1ccc([N+](=O)[O-])cc1?
IC50 [1]: 12.5 µM; XI50 [2]: 21.8

How did the IC50 [1] turn out when COc1ccc(-c2nn(-c3ccccc3)cc2/C=C2\SC(=O)NC2=O)cc1 was run?
The IC50 was 13 µM.

What about the XI50 [2] of the same molecule?
The XI50 was 24.4.

With CCCCCCCCCCC[C@@H](C[C@@H]1OC(=O)[C@H]1CCCCCC)OC(=O)[C@H](CC(C)C)NC=O as the molecule, how does the XI50 [2] read?
The XI50 was 3.72.

Which results are given for O=C1NC(=O)/C(=C/c2cn(-c3ccccc3)nc2-c2ccc(F)cc2)S1?
IC50 [1]: 12.9 µM; XI50 [2]: 25.4

Which IC50 [1] does the source give for COc1ccc(-c2nn(-c3ccccc3)cc2/C=C2\SC(=O)N(Cc3ccc([N+](=O)[O-])cc3)C2=O)cc1 here?
Its IC50 is 9.4 µM.

What about the XI50 [2] of the same molecule?
Its XI50 is 18.1.

Which results are given for O=C1S/C(=C\c2cn(-c3ccccc3)nc2-c2ccc([N+](=O)[O-])cc2)C(=O)N1Cc1ccc([N+](=O)[O-])cc1?
IC50 [1]: 8.44 µM; XI50 [2]: 18.7

How did the IC50 [1] turn out when O=C1S/C(=C\c2cn(-c3ccccc3)nc2-c2ccc(Cl)cc2)C(=O)N1Cc1ccc([N+](=O)[O-])cc1 was run?
Its IC50 is 4.81 µM.

And the XI50 [2]?
Its XI50 is 10.

And the Ki [3]?
The Ki was 14.4 µM.

B1: Pancreatic triacylglycerol lipase (Sus scrofa), P00591 (protein)
chain: T1 sequence (P00591 whole entry)
With B1 as the molecule, how does the Km [4] read?
Its Km is 165 µM.

What about the Km [5] of the same molecule?
Its Km is 145 µM.

What about the Vmax [6] of the same molecule?
The Vmax was 0.0566 µM/min.

What about the Vmax [7] of the same molecule?
The Vmax was 0.0557 µM/min.

What about the Km [8] of the same molecule?
Its Km is 125 µM.

What about the Vmax [9] of the same molecule?
Its Vmax is 0.0565 µM/min.
